Our source for the activity and viability values is publication PMC12040169 (PLOS Biology, 2025).

For orientation: viability means a read-out of living cells in per cent, often relative to untreated cells.

Data set [1] has as its system T1, CTL2-GFP (C. trachomatis L2/434/Bu, GFP-expressing).
T1 construct: L2/434/Bu, GFP-expressing
As to the kind of experiment: microbe, parasite or virus in culture. Conditions: Chlamydia trachomatis, HeLa, 28.5 h; bulk GFP, mean of 2; read-out: % of control remaining. The arrangement: Intracellular C. trachomatis growth in HeLa cells, bulk GFP fluorescence relative to DMSO. As to the method:
MICs were calculated as described above.

Data set [2] in a line: in vitro. The arrangement: Viability of infected HeLa host cells, resazurin conversion, bulk resorufin fluorescence relative to DMSO. Conditions: human, hela cells; bulk resorufin, mean of 2.
Data set [3] has as its system T2, C. trachomatis L2/434/Bu expressing GFP (CTL2-GFP).
T2 construct: L2/434/Bu GFP intracellular growth in HeLa cells
Description: microbe, parasite or virus in culture. The arrangement: C. trachomatis total inclusion area by high-content imaging, normalised to DMSO. Conditions: Chlamydia trachomatis, HeLa, 28.5 h; total inclusion area; read-out: % of control remaining. In outline: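 Screening measures GFP fluorescence from the reporter strain and resorufin fluorescence for host viability, with Hoechst-based imaging of fixed cells adding inclusion area, inclusion number and nuclei count per well.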

As for `O=[N+]([O-])c1ccc(-n2cnc3ccccc32)c([N+](=O)[O-])c1` [CBK261120], in data set [1], the activity at 1 µM turned out to be 104%, the activity at 5 µM turned out to be 40.1% and the activity at 10 µM is 0%. Moreover, in data set [2], the viability at 28.5 h, 1 µM came out at 107%; the viability at 28.5 h, 5 µM was determined as 88.2%; the viability at 28.5 h, 10 µM came to 111%. Further, in data set [3], the activity at 1 µM turned out to be 86.4%, the activity at 5 µM turned out to be 46.4% and the activity at 10 µM was determined as 2.35%.

Regarding `CC1=C(C)C(=NNC(N)=S)C(C)=C(C)C1=NNC(N)=S` [CBK261262], in data set [1], the activity at 1 µM is 116%, the activity at 5 µM was 39.1% and the activity at 10 µM worked out at 12.7%. In data set [2], the viability at 28.5 h, 1 µM is 90.9%; the viability at 28.5 h, 5 µM came out at 90.8%; the viability at 28.5 h, 10 µM is 90.6%. For the same compound, in data set [3], the activity at 1 µM was 96.7%, the activity at 5 µM stood at 31.5% and the activity at 10 µM was 17.1%.

On to `COc1nccnc1NS(=O)(=O)c1ccc(Nc2c([N+](=O)[O-])cc([N+](=O)[O-])c3nonc23)cc1` [CBK261441], for which, in data set [1], the activity at 1 µM amounted to 33.2%, the activity at 5 µM came out at 18% and the activity at 10 µM was found to be 10.6%. Moreover, in data set [2], the viability at 28.5 h, 1 µM came to 90.8%; the viability at 28.5 h, 5 µM was 95.9%; the viability at 28.5 h, 10 µM came to 94.2%. Also, in data set [3], the activity at 1 µM stood at 42.6%, the activity at 5 µM came to 28.1% and the activity at 10 µM stood at 24.2%.

Take `Cc1noc(NS(=O)(=O)c2ccc(NC(=O)COc3ccc(Cl)cc3Cl)cc2)c1C` [CBK262142]: in data set [1], the activity at 1 µM came out at 103%, the activity at 5 µM came out at 26.5% and the activity at 10 µM worked out at 14.3%. In addition, in data set [2], the viability at 28.5 h, 1 µM stood at 95.1%; the viability at 28.5 h, 5 µM is 97.3%; the viability at 28.5 h, 10 µM came out at 100%. In data set [3], the activity at 1 µM amounted to 102%, the activity at 5 µM turned out to be 49.8% and the activity at 10 µM is 24.6%.

Regarding `COc1ccc(-c2csc(/C(C#N)=C/Nc3ccc(S(=O)(=O)Nc4nccs4)cc3)n2)cc1` [CBK262374], in data set [1], the activity at 1 µM was 146%, the activity at 5 µM worked out at 131% and the activity at 10 µM came to 113%. Moreover, in data set [2], the viability at 28.5 h, 1 µM came out at 99.9%; the viability at 28.5 h, 5 µM was found to be 95.6%; the viability at 28.5 h, 10 µM is 96.2%. In data set [3], the activity at 1 µM was determined as 134%, the activity at 5 µM was determined as 95% and the activity at 10 µM came to 96.5%.

Turning to `CCc1nnc(NS(=O)(=O)c2ccc(N/C=C3\C(=O)N(c4ccc(Cl)cc4)N=C3C)cc2)s1` [CBK262416], in data set [1], the activity at 1 µM turned out to be 91.1%, the activity at 5 µM stood at 26.1% and the activity at 10 µM turned out to be 13.2%. In data set [2], the viability at 28.5 h, 1 µM came to 91.9%; the viability at 28.5 h, 5 µM is 94.3%; the viability at 28.5 h, 10 µM came out at 93.3%. Further, in data set [3], the activity at 1 µM was 102%, the activity at 5 µM worked out at 50.5% and the activity at 10 µM turned out to be 27%.

Take `Cc1cc(NS(=O)(=O)c2ccc(Nc3nc(-c4cccs4)cs3)cc2)no1` [CBK262504]: in data set [1], the activity at 1 µM was 96.7%, the activity at 5 µM was determined as 25.1% and the activity at 10 µM amounted to 15.9%. In addition, in data set [2], the viability at 28.5 h, 1 µM turned out to be 86.5%; the viability at 28.5 h, 5 µM came out at 92.2%; the viability at 28.5 h, 10 µM was found to be 88.4%. Also, in data set [3], the activity at 1 µM was found to be 112%, the activity at 5 µM stood at 45.8% and the activity at 10 µM is 19.5%.

Regarding `O=C(NCCCn1ccnc1)c1cc(-c2ccc(Br)cc2)nc2ccccc12` [CBK262645], in data set [1], the activity at 1 µM was found to be 138%, the activity at 5 µM is 87.8% and the activity at 10 µM was 31.9%. In data set [2], the viability at 28.5 h, 1 µM is 103%; the viability at 28.5 h, 5 µM was 107%; the viability at 28.5 h, 10 µM was 94.9%. In data set [3], the activity at 1 µM worked out at 126%, the activity at 5 µM was 95.8% and the activity at 10 µM is 45.4%.

`COc1cc(NS(=O)(=O)c2ccc(N/C=C3/CCc4ccccc4C3=O)cc2)nc(OC)n1` [CBK263376]: in data set [1], the activity at 1 µM is 108%, the activity at 5 µM turned out to be 26% and the activity at 10 µM amounted to 22.7%. For the same compound, in data set [2], the viability at 28.5 h, 1 µM was found to be 101%; the viability at 28.5 h, 5 µM worked out at 99.1%; the viability at 28.5 h, 10 µM was determined as 78.6%. Also, in data set [3], the activity at 1 µM was 83.5%, the activity at 5 µM is 48.7% and the activity at 10 µM turned out to be 12.5%.

With `Cc1cc(OCC(=O)Nc2ccc(S(=O)(=O)Nc3onc(C)c3C)cc2)cc(C)c1Cl` [CBK263491], in data set [1], the activity at 1 µM turned out to be 59.3%, the activity at 5 µM worked out at 15.2% and the activity at 10 µM turned out to be 5.2%. In data set [2], the viability at 28.5 h, 1 µM stood at 103%; the viability at 28.5 h, 5 µM was found to be 100%; the viability at 28.5 h, 10 µM amounted to 117%. Further, in data set [3], the activity at 1 µM came out at 55.4%, the activity at 5 µM was found to be 25.5% and the activity at 10 µM came out at 11.8%.

With `CCOC(=O)c1c(C)n(-c2ccc(C)cc2)c2ccc(O)c(CN(C)C)c12` [CBK263499C], in data set [1], the activity at 1 µM came out at 124%, the activity at 5 µM stood at 104% and the activity at 10 µM turned out to be 38.4%. Further, in data set [2], the viability at 28.5 h, 1 µM is 101%; the viability at 28.5 h, 5 µM is 93.4%; the viability at 28.5 h, 10 µM was 90.3%. Also, in data set [3], the activity at 1 µM was found to be 89%, the activity at 5 µM was 95.9% and the activity at 10 µM was determined as 12.4%.

Take `CN(C)CCNc1nc(-c2ccc(Cl)cc2)nc2ccccc12` [CBK263942]: in data set [1], the activity at 1 µM amounted to 111%, the activity at 5 µM is 85.1% and the activity at 10 µM came out at 47.9%. In data set [2], the viability at 28.5 h, 1 µM was determined as 94.8%; the viability at 28.5 h, 5 µM stood at 97%; the viability at 28.5 h, 10 µM was found to be 94.4%. Moreover, in data set [3], the activity at 1 µM was 64.3%, the activity at 5 µM stood at 38.6% and the activity at 10 µM was 5.67%.

For `Cc1noc(NS(=O)(=O)c2ccc(NC(=O)CCN3C(=O)c4ccccc4C3=O)cc2)c1C` [CBK264091], in data set [1], the activity at 1 µM is 106%, the activity at 5 µM was found to be 40.3% and the activity at 10 µM came to 28.9%. In data set [2], the viability at 28.5 h, 1 µM was 92.8%; the viability at 28.5 h, 5 µM came out at 92.8%; the viability at 28.5 h, 10 µM stood at 91.3%. In data set [3], the activity at 1 µM stood at 99.8%, the activity at 5 µM worked out at 67.5% and the activity at 10 µM turned out to be 32.7%.

Take `O=C(NCc1cccnc1)/C(=C/c1ccc(-c2cccc(Cl)c2)o1)S(=O)(=O)c1ccccc1` [CBK264508]: in data set [1], the activity at 1 µM amounted to 101%, the activity at 5 µM stood at 45% and the activity at 10 µM was determined as 8.14%. For the same compound, in data set [2], the viability at 28.5 h, 1 µM is 107%; the viability at 28.5 h, 5 µM was found to be 100%; the viability at 28.5 h, 10 µM worked out at 97.8%. Moreover, in data set [3], the activity at 1 µM was 78.5%, the activity at 5 µM turned out to be 44% and the activity at 10 µM is 10.3%.

As to `CC(C)(C)CC(C)(C)NC(=S)Nc1ccc2nc(-c3ccccn3)c(-c3ccccn3)nc2c1` [CBK265118], in data set [1], the activity at 1 µM turned out to be 95.9%, the activity at 5 µM was found to be 66.8% and the activity at 10 µM was 47.2%. In data set [2], the viability at 28.5 h, 1 µM is 110%; the viability at 28.5 h, 5 µM amounted to 106%; the viability at 28.5 h, 10 µM came to 98%. In data set [3], the activity at 1 µM was 82.1%, the activity at 5 µM was 31.9% and the activity at 10 µM came to 16.8%.

Consider `Cc1noc(NS(=O)(=O)c2ccc(NC(=O)/C=C/c3ccc(C(C)C)cc3)cc2)c1C` [CBK265430], for which, in data set [1], the activity at 1 µM came to 66.5%, the activity at 5 µM turned out to be 26.3% and the activity at 10 µM was 11.6%. Also, in data set [2], the viability at 28.5 h, 1 µM is 108%; the viability at 28.5 h, 5 µM amounted to 102%; the viability at 28.5 h, 10 µM amounted to 106%. Moreover, in data set [3], the activity at 1 µM was 69.9%, the activity at 5 µM is 23.1% and the activity at 10 µM came out at 22.2%.

On to `O=C(NCCCn1ccnc1)c1cc(-c2cccc(Br)c2)nc2ccccc12` [CBK265476], for which, in data set [1], the activity at 1 µM was 88.9%, the activity at 5 µM came out at 13% and the activity at 10 µM was 0%. For the same compound, in data set [2], the viability at 28.5 h, 1 µM turned out to be 108%; the viability at 28.5 h, 5 µM was 115%; the viability at 28.5 h, 10 µM was 116%. Also, in data set [3], the activity at 1 µM is 76.4%, the activity at 5 µM is 28.5% and the activity at 10 µM was 3.75%.

Turning to `Cn1cc(C(c2ccc(OCC(=O)O)cc2)c2cn(C)c3ccccc23)c2ccccc21` [CBK266403], in data set [1], the activity at 1 µM was determined as 91%, the activity at 5 µM was 23.4% and the activity at 10 µM turned out to be 9.15%. In data set [2], the viability at 28.5 h, 1 µM is 113%; the viability at 28.5 h, 5 µM turned out to be 111%; the viability at 28.5 h, 10 µM worked out at 115%. In data set [3], the activity at 1 µM came out at 87.5%, the activity at 5 µM turned out to be 36% and the activity at 10 µM is 2.98%.

For `COc1ccc(S(=O)(=O)Nc2ccc(S(=O)(=O)Nc3nccs3)cc2)c([N+](=O)[O-])c1` [CBK266801], in data set [1], the activity at 1 µM was found to be 13.9%, the activity at 5 µM was 4.96% and the activity at 10 µM came to 0%. In data set [2], the viability at 28.5 h, 1 µM worked out at 110%; the viability at 28.5 h, 5 µM turned out to be 123%; the viability at 28.5 h, 10 µM stood at 119%. Besides, in data set [3], the activity at 1 µM amounted to 26.3%, the activity at 5 µM amounted to 5.01% and the activity at 10 µM was determined as 1.27%.
